Assay results: US9000175B2, “Bicyclic GPR119 modulators” (Lupin Limited, priority 2010, dated 2015)
“And” between values parts separate entries of the source, which are not always exact repeats. Equal values may be shown once.

What follows are compounds tested against T1, human GPR119 (Homo sapiens, UniProt Q8TDV5) (assay: Cyclic AMP assay in stable cell line). Conditions: CHO-K1 cells stably transfected with human GPR119; cAMP levels (FRET, cAMP femto kit); 1 h at 37° C; read-out: EC50 Range.
T1 construct: expressed in transfected cells
T1 sequence (Q8TDV5 1-335): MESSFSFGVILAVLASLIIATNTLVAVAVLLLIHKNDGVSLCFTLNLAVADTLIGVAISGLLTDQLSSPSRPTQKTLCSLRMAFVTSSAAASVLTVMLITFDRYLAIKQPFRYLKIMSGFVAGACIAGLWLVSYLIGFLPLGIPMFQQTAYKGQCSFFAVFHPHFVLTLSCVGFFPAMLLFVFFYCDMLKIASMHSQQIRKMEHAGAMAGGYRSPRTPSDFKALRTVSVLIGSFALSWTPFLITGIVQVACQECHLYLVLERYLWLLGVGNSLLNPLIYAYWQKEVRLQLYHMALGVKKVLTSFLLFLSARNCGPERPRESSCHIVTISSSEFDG
Assay type: cell-based
Procedure: Cyclic AMP Assay in Stable Cell Line:
Chinese Hamster Ovary (CHO-K1) cells were stably transfected with human GPR119 and were maintained in Ham's F-12 complete medium containing 10% heat inactivated FBS (Sigma, UK). The cells were maintained under a selection pressure with 500 μg/ml G418 (GENETICIN). Stable clones were analyzed for functional cAMP response to OEA (oleoylethanolamide).
To estimate activation of GPR119 and induction of cAMP levels by GPR119 agonists, cells were serum starvation for 18-24 h, trypsinized and seeded in 96 well plates at a, density of 7500 cells/well. The cells were then treated with test compounds diluted in serum free Ham's F12 for 1 h at 37° C. The cAMP levels were measured by using the cAMP femto kit (CisBio) by following the manufacturer's instructions. Following treatment with a test compound, the cells were lysed and cAMP levels were estimated by adding D2-labelled cAMP and europium-cryptate conjugated anti-cAMP antibody. Close proximity of D2 and cryptate results in FRET and the subsequent fluorescence that is measured at 665 and 620 nm. The FRET response is calculated as the ratio of fluorescence at 665 to fluorescence at 620 nm. The unlabelled cAMP produced as a result of GPR119 activation/agonism competes with the D2-cAMP leading to a decrease in the FRET signal. Thus the FRET signal is inversely proportional to the amount of cAMP produced by the treated cells. In a separate set of wells, known concentrations of cAMP were added in order to get a standard linear curve for extrapolation of the cAMP values in the unknown/test samples. Fluorescence was measured on BMG Labtech PHERAstar machine.
The concentration of compound required to stimulate a half-maximal response (EC50) was determined using the GraphPad Prism software.
The compounds prepared were tested using the above assay procedure and the results obtained are given below.

`CC(C)(C)OC(=O)N1CCC(Oc2ccc(-n3ccc4cc(S(C)(=O)=O)ccc43)nc2)CC1` [Example-1, tert-Butyl-4-((6-(5-(methylsulfonyl)-1H-indol-1-yl)pyridin-3-yl)oxy) piperidine-1-carboxylate] and `CC(C)(C)OC(=O)N1CCC(COc2ccc(-n3ccc4cc(S(C)(=O)=O)ccc43)nc2)CC1` [Example-5, tert-Butyl-4-(((6-(5-(methylsulfonyl)-1H-indol-1-yl)pyridin-3-yl)oxy)methyl)piperidine-1-carboxylate] cannot be ordered by EC50: < 50 nM for the first, < 50 nM for the second.

`CCc1cnc(N2CCC(Oc3ccc(-n4ccc5cc(S(C)(=O)=O)ccc54)nc3)CC2)nc1` [Example-2, 1-(5-((1-(5-Ethylpyrimidin-2-yl)piperidin-4-yl)oxy)pyridin-2-yl)-5-(methylsulfonyl)-1H-indole] and `CCc1cnc(N2CCC(Oc3ccc(-n4ccc5cc(S(=O)(=O)CC)ccc54)nc3)CC2)nc1` [Example-11, 1-(5-((1-(5-Ethylpyrimidin-2-yl)piperidin-4-yl)oxy)pyridin-2-yl)-5-(ethylsulfonyl)-1H-indole] cannot be ordered by EC50: < 50 nM for the first, < 50 nM for the second.

First: CC(C)c1noc(N2CCC(Oc3ccc(-n4ccc5cc(S(C)(=O)=O)ccc54)nc3)CC2)n1 [Example-4, 3-Isopropyl-5-(4-((6-(5-(methylsulfonyl)-1H-indol-1-yl)pyridin-3-yl)oxy)piperidin-1-yl)-1,2,4-oxadiazole]
Second: Cc1noc(N2CCC(Oc3ccc(-n4ccc5cc(S(=O)(=O)C(C)C)ccc54)nc3)CC2)n1 [Example-18, 5-(4-((6-(5-(Isopropylsulfonyl)-1H-indol-1-yl)pyridin-3-yl)oxy)piperidin-1-yl)-3-methyl-1,2,4-oxadiazole]
The EC50 of the first is lower: < 50 nM for the first, 50 to 250 nM for the second.

First: CCc1cnc(N2CCC(COc3ccc(-n4ccc5cc(S(C)(=O)=O)ccc54)nc3)CC2)nc1 [Example-6, 1-(5-((1-(5-Ethylpyrimidin-2-yl)piperidin-4-yl)methoxy)pyridin-2-yl)-5-(methylsulfonyl)-1H-indole]
Second: CCc1cnc(N2CCC(COc3ccc(-n4ccc5cc(C(=O)NC)ccc54)nc3)CC2)nc1 [Example-67, 1-(5-((1-(5-Ethylpyrimidin-2-yl)piperidin-4-yl)methoxy)pyridin-2-yl)-N-methyl-1H-indole-5-carboxamide]
The EC50 of the first is lower: < 50 nM for the first, 50 to 250 nM for the second.

`CCOC(=O)Nc1ccc2c(ccn2-c2ccc(OC3CCN(C(=O)OC(C)(C)C)CC3)cn2)c1` [Example-8, tert-Butyl-4-((6-(5-((ethoxycarbonyl)amino)-1H-indol-1-yl)pyridin-3-yl)oxy)piperidine-1-carboxylate] and `CC(C)C(=O)Nc1ccc2c(ccn2-c2ccc(OC3CCN(C(=O)OC(C)(C)C)CC3)cn2)c1` [Example-56, tert-Butyl-4-((6-(5-isobutyramido-1H-indol-1-yl)pyridin-3-yl)oxy)-piperidine-1-carboxylate] cannot be ordered by EC50: < 50 nM for the first, < 50 nM for the second.

`CCOC(=O)Nc1ccc2c(ccn2-c2ccc(OC3CCN(c4ncc(CC)cn4)CC3)cn2)c1` [Example-9, Ethyl(1-(5-((1-(5-ethylpyrimidin-2-yl)piperidin-4-yl)oxy)pyridin-2-yl)-1H-indol-5-yl)carbamate] and `CCc1cnc(N2CCC(Oc3ccc(-n4ccc5cc(C(=O)N(C)C)ccc54)nc3)CC2)nc1` [Example-40, 1-(5-((1-(5-Ethylpyrimidin-2-yl)piperidin-4-yl)oxy)pyridin-2-yl)-N,N-dimethyl-1H-indole-5-carboxamide] cannot be ordered by EC50: < 50 nM for the first, < 50 nM for the second.

Compared with `CCS(=O)(=O)c1ccc2c(ccn2-c2ccc(OC3CCN(CC(C)(C)O)CC3)cn2)c1` [Example-13, 1-(4-((6-(5-(Ethylsulfonyl)-1H-indol-1-yl)pyridin-3-yl)oxy)piperidin-1-yl)-2-methylpropan-2-ol], `CC(C)(C)CN1CCC(Oc2ccc(-n3ccc4cc(S(C)(=O)=O)ccc43)nc2)CC1` [Example-35, 5-(Methylsulfonyl)-1-(5-((1-neopentylpiperidin-4-yl)oxy)pyridin-2-yl)-1H-indole] is lower in EC50: 50 to 250 nM for the first, < 50 nM for the second. The second is the more potent here.

`CC(C)(F)CN1CCC(Oc2ccc(-n3ccc4cc(S(C)(=O)=O)ccc43)nc2)CC1` [Example-14, 1-(5-((1-(2-Fluoro-2-methylpropyl)piperidin-4-yl)oxy)pyridin-2-yl)-5-(methylsulfonyl)-1H-indole] and `CN(C)C(=O)c1ccc2c(ccn2-c2ccc(OC3CCN(C(=O)OC(C)(C)C)CC3)cn2)c1` [Example-39, tert-Butyl-4-((6-(5-(dimethylcarbamoyl)-1H-indol-1-yl)pyridin-3-yl)oxy) piperidine-1-carboxylate] cannot be ordered by EC50: < 50 nM for the first, < 50 nM for the second.

`CCc1cnc(N2CCC(Nc3ccc(-n4ccc5cc(C(=O)N(C)C)ccc54)nc3)CC2)nc1` [Example-22, 1-(5-((1-(5-Ethylpyrimidin-2-yl)piperidin-4-yl)amino)pyridin-2-yl)-N,N-dimethyl-1H-indole-5-carboxamide] and `CCc1cnc(N2CCC(Oc3ccc(-n4ccc5cc(C(=O)NC6CC6)ccc54)nc3)CC2)nc1` [Example-54, N-Cyclopropyl-1-(5-((1-(5-ethylpyrimidin-2-yl)piperidin-4-yl)oxy)pyridin-2-yl)-1H-indole-5-carboxamide] cannot be ordered by EC50: < 50 nM for the first, < 50 nM for the second.

First: CCc1cnc(N2CCC(OCc3ccc(-n4ccc5cc(S(C)(=O)=O)ccc54)nc3)CC2)nc1 [Example-42, 1-(5-(((1-(5-Ethylpyrimidin-2-yl)piperidin-4-yl)oxy)methyl)pyridin-2-yl)-5-(methylsulfonyl)-1H-indole]
Second: CCc1cnc(N2CCC(Oc3ccc(-n4ccc5cc(C#N)ccc54)nc3)CC2)nc1 [Example-58, 1-(5-((1-(5-Ethylpyrimidin-2-yl)piperidin-4-yl)oxy)pyridin-2-yl)-1H-indole-5-carbonitrile]
The EC50 of the first is lower: 50 to 250 nM for the first, 250 to 1000 nM for the second.

First: CC(C)(C)OC(=O)N1CCC(OCc2ccc(N3CCc4cc(S(C)(=O)=O)ccc43)nc2)CC1 [Example-46, tert-Butyl-4-((6-(5-(methylsulfonyl)indolin-1-yl)pyridin-3-yl)methoxy) piperidine-1-carboxylate]
Second: CC(C)NC(=O)c1ccc2c(ccn2-c2ccc(OC3CCN(C(=O)OC(C)(C)C)CC3)cn2)c1 [Example-62, tert-Butyl-4-((6-(5-(isopropylcarbamoyl)-1H-indol-1-yl)pyridin-3-yl)oxy) piperidine-1-carboxylate]
The EC50 of the first is lower: < 50 nM for the first, 50 to 250 nM for the second.

First: CC(C)(C)OC(=O)N1CC2COCC(C1)C2Oc1ccc(-n2ccc3cc(S(C)(=O)=O)ccc32)nc1 (stereo not drawn) [Example-48, (syn)-tert-Butyl-9-((6-(5-(methylsulfonyl)-1H-indol-1-yl)pyridin-3-yl)oxy)-3-oxa-7-azabicyclo[3.3.1]nonane-7-carboxylate]
Second: CCc1cnc(N2CC3COCC(C2)C3Oc2ccc(-n3ccc4cc(S(C)(=O)=O)ccc43)nc2)nc1 (stereo not drawn) [Example-51, anti 7-(5-Ethylpyrimidin-2-yl)-9-((6-(5-(methylsulfonyl)-1H-indol-1-yl)pyridin-3-yl)oxy)-3-oxa-7-azabicyclo[3.3.1]nonane]
The EC50 of the first is higher: 50 to 250 nM for the first, < 50 nM for the second.

Compared with `CC(C)(C)OC(=O)N1CC2COCC(C1)C2Oc1ccc(-n2ccc3cc(S(C)(=O)=O)ccc32)nc1` (stereo not drawn) [Example-49, (anti) tert-Butyl-9-((6-(5-(methylsulfonyl)-1H-indol-1-yl)pyridin-3-yl)oxy)-3-oxa-7-azabicyclo[3.3.1]nonane-7-carboxylate], `CNC(=O)c1ccc2c(ccn2-c2ccc(OCC3CCN(C(=O)OC(C)(C)C)CC3)cn2)c1` [Example-66, tert-Butyl-4-(((6-(5-(methylcarbamoyl)-1H-indol-1-yl)pyridin-3-yl)-oxy)methyl)piperidine-1-carboxylate] is higher in EC50: < 50 nM for the first, 50 to 250 nM for the second. The first is the more potent here.

With `CC(C)C(=O)Nc1ccc2c(ccn2-c2ccc(OC3CCN(c4nc(C(C)C)no4)CC3)cn2)c1` [Example-57, N-(1-(5-((1-(3-Isopropyl-1,2,4-oxadiazol-5-yl)piperidin-4-yl)oxy)pyridin-2-yl)-1H-indol-5-yl)isobutyramide] the EC50 was < 50 nM.

In the case of `CC(C)CN1CCC(Oc2ccc(-n3ccc4cc(S(C)(=O)=O)ccc43)nc2)CC1` [Example-30, 1-(5-((1-Isobutylpiperidin-4-yl)oxy)pyridin-2-yl)-5-(methylsulfonyl)-1H-indole], the EC50 is reported as < 50 nM and 50 to 250 nM.
For `CN(C)C(=O)c1ccc2c(ccn2-c2ccc(OCC3CCN(C(=O)OC(C)(C)C)CC3)cn2)c1` [Example-45, tert-butyl 4-(((6-(5-(dimethylcarbamoyl)-1H-indol-1-yl)pyridin-3-yl)oxy)methyl)piperidine-1-carboxylate], the EC50 was < 50 nM and 50 to 250 nM.
